This passage reports IC50 results from patent US8017612B2, “Piperazine compound and use thereof as a HCV polymerase inhibitor” (priority 2006, dated 2011).

For test [1], the target named is T1, HCV polymerase (NS5B) type 1b (Hepatitis C virus genotype 1b, UniProt P26663).
T1 construct: a region encoding NS5B (J Virol 1991 March, 65(3), 1105-13, 544 amino acids after deletion of 47 amino acids on the C-terminal); 6xHis (C); made in house; host or cells: Escherichia coli
Nature of the test: Assay of enzyme (HCV polymerase) inhibitory activity, type 1b enzyme. The format is biochemical, HCV BK strain (type 1b). As to conditions: HCV polymerase inhibitory activity (IC50), 1b, type 1b enzyme 0.5 μg/ml, 25° C., 60 min. In a few lines: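 Rxn: NS5B 1b (BK, ΔC47, His6) 0.5 μg/ml; substrate RNA 5 μg/ml; ATP/GTP/CTP 50 μM, UTP 2 μM + [5,6-3H]UTP; 20 mM Tris pH 7.5, 5 mM MgCl2, 50 mM NaCl, 1 mM EDTA/DTT. 25 °C, 60 min. Stop with TCA/pyrophosphate, filter, scintillation count; IC50 vs. untreated.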

Test [2] concerns the target T2, HCV polymerase (NS5B) type 1a (Hepatitis C virus genotype 1a, UniProt P26664).
T2 construct: made in house; host or cells: Escherichia coli (by the 'similar method' of the 1b enzyme)
Briefly: Assay of enzyme (HCV polymerase) inhibitory activity, type 1a enzyme. The conditions noted are these: HCV polymerase inhibitory activity (IC50), 1a, type 1a enzyme 1.5 μg/ml, 25° C., 60 min. The format is biochemical, HCV type 1a (cloned from the blood of patients). A digest of the protocol: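 NS5B Δ47 C-term His6 (type 1a, 1.5 μg/ml); substrate RNA 5 μg/ml; ATP/GTP/CTP 50 μM, UTP 2 μM + [5,6-3H]UTP; Tris pH 7.5, MgCl2 5 mM; 25° C, 60 min. TCA/pyrophosphate stop, GF/B filter, scintillation. IC50 vs no-compound control.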

As usually defined, the IC50 is the concentration that inhibits the measured activity by half. Higher therefore signals lower potency. As to `Cc1nnc(NC(=O)N2CCN(S(=O)(=O)c3ccc(OC(F)(F)F)cc3)[C@@H](C(=O)NCc3ccc(C(F)(F)C(F)(F)F)cc3)C2)s1` [Example 552, (R)-4-(4-trifluoromethoxy-benzenesulfonyl)-piperazine-1,3-dicarboxylic acid 1-[(5-methyl-[1,3,4]thiadiazol-2-yl)-amide] 3-(4-pentafluoroethyl-benzylamide)], the IC50 was 0.1 to 1 µM in test [1] and more than 1 µM in test [2].

For `CCC(F)(F)c1ccc(CNC(=O)[C@H]2CN(C(=O)Nc3cc(C)ns3)CCN2S(=O)(=O)c2ccc(OC(F)(F)F)cc2)cc1` [Example 553, (R)-4-(4-trifluoromethoxy-benzenesulfonyl)-piperazine-1,3-dicarboxylic acid 3-[4-(1,1-difluoro-propyl)-benzylamide] 1-[(3-methyl-isothiazol-5-yl)-amide]], the IC50 in test [1] and in test [2] was less than 0.1 µM in each case.

Take `CCC(F)(F)c1ccc(CNC(=O)[C@H]2CN(C(=O)Nc3nccs3)CCN2S(=O)(=O)c2ccc(OC(F)(F)F)cc2)cc1` [Example 554, (R)-4-(4-trifluoromethoxy-benzenesulfonyl)-piperazine-1,3-dicarboxylic acid 3-[4-(1,1-difluoro-propyl)-benzylamide] 1-thiazol-2-ylamide]: the IC50 in test [1] is less than 0.1 µM; in test [2], 0.1 to 1 µM.

Regarding `CCC(F)(F)c1ccc(CNC(=O)[C@H]2CN(C(=O)Nc3ccnc(C(F)(F)F)c3)CCN2S(=O)(=O)c2ccc(OC(F)(F)F)cc2)cc1` [Example 555, (R)-4-(4-trifluoromethoxy-benzenesulfonyl)-piperazine-1,3-dicarboxylic acid 3-[4-(1,1-difluoro-propyl)-benzylamide] 1-[(2-trifluoromethyl-pyridin-4-yl)-amide]], the IC50 in test [1] and in test [2] was 0.1 to 1 µM each time.

Take `CCCc1ccc(CNC(=O)[C@H]2CN(c3cnc4c(n3)NC(=O)OC4)CCN2S(=O)(=O)c2ccc(OC(F)(F)F)cc2)cc1` [Example 556, (R)-4-(2-oxo-1,4-dihydro-2H-pyrazino[2,3-d][1,3]oxazin-7-yl)-1-(4-trifluoromethoxy-benzenesulfonyl)-piperazine-2-carboxylic acid 4-propyl-benzylamide]: the 50% inhibitory concentration (IC50) in test [1] and in test [2] was less than 0.1 µM in each case.

On to `CCCc1ccc(CNC(=O)[C@H]2CN(c3nc4c(s3)CNCC4)CCN2S(=O)(=O)c2ccc(OC(F)(F)F)cc2)cc1` [Example 557, (R)-4-(4,5,6,7-tetrahydro-thiazolo[5,4-c]pyridin-2-yl)-1-(4-trifluoromethoxy-benzenesulfonyl)-piperazine-2-carboxylic acid 4-propyl-benzylamide], for which the IC50 in test [1] and in test [2] was less than 0.1 µM in each case.

`CC(C)(C)c1ccc(CNC(=O)[C@H]2CN(c3cnc(CN4CCCC4)cn3)CCN2S(=O)(=O)c2ccc(OC(F)(F)F)cc2)cc1` [Example 558, (R)-5′-pyrrolidin-1-ylmethyl-4-(4-trifluoromethoxy-benzenesulfonyl)-3,4,5,6-tetrahydro-2H-[1,2′]bipyrazinyl-3-carboxylic acid 4-tert-butyl-benzylamide]: the IC50 was less than 0.1 µM in test [1] and 0.1 to 1 µM in test [2].

`CCC(F)(F)c1ccc(CNC(=O)[C@H]2CN(c3cnc(C(=O)O)cn3)CCN2S(=O)(=O)c2ccc(OC(F)(F)F)cc2)cc1` [Example 559, (R)-3-[4-(1,1-difluoro-propyl)-benzylcarbamoyl]-4-(4-trifluoromethoxy-benzenesulfonyl)-3,4,5,6-tetrahydro-2H-[1,2′]bipyrazinyl-5′-carboxylic acid]: the concentration for half-maximal inhibition (IC50) in test [1] and in test [2] was less than 0.1 µM in each case.

`CCC(F)(F)c1ccc(CNC(=O)[C@H]2CN(c3cnc(CO)cn3)CCN2S(=O)(=O)c2ccc(OC(F)(F)F)cc2)cc1` [Example 560, (R)-5′-hydroxymethyl-4-(4-trifluoromethoxy-benzenesulfonyl)-3,4,5,6-tetrahydro-2H-[1,2′]bipyrazinyl-3-carboxylic acid 4-(1,1-difluoro-propyl)-benzylamide]: the IC50 in test [1] and in test [2] was less than 0.1 µM throughout.

Consider `CCCc1ccc(CNC(=O)[C@H]2CN(c3nc4c(s3)CN(Cc3ccccc3)CC4)CCN2S(=O)(=O)c2ccc(OC(F)(F)F)cc2)cc1` [Example 561, (R)-4-(5-benzyl-4,5,6,7-tetrahydro-thiazolo[5,4-c]pyridin-2-yl)-1-(4-trifluoromethoxy-benzenesulfonyl)-piperazine-2-carboxylic acid 4-propyl-benzylamide], for which the IC50 in test [1] and in test [2] was less than 0.1 µM in each case.

For `CCCc1ccc(CNC(=O)[C@H]2CN(c3nc(CO)c(CO)s3)CCN2S(=O)(=O)c2ccc(OC(F)(F)F)cc2)cc1` [Example 562, (R)-4-(4,5-bis-hydroxymethyl-thiazol-2-yl)-1-(4-trifluoromethoxy-benzenesulfonyl)-piperazine-2-carboxylic acid 4-propyl-benzylamide], the IC50 in test [1] and in test [2] was less than 0.1 µM throughout.

Turning to `CCCc1ccc(CNC(=O)[C@H]2CN(c3nc(C)ns3)CCN2S(=O)(=O)c2ccc(OC(F)(F)F)cc2)cc1` [Example 563, (R)-4-(3-methyl-[1,2,4]thiadiazol-5-yl)-1-(4-trifluoromethoxy-benzenesulfonyl)-piperazine-2-carboxylic acid 4-propyl-benzylamide], the IC50 in test [1] and in test [2] was less than 0.1 µM throughout.

In the case of `CCc1ccc(S(=O)(=O)N2CCN(c3cnc(C(=O)O)cn3)C[C@@H]2C(=O)NCc2ccc(C(F)(F)CC)cc2)cc1` [Example 564, (R)-3-[4-(1,1-difluoro-propyl)-benzylcarbamoyl]-4-(4-ethyl-benzenesulfonyl)-3,4,5,6-tetrahydro-2H-[1,2′]bipyrazinyl-5′-carboxylic acid], the IC50 in test [1] and in test [2] was less than 0.1 µM throughout.

As for `CCC(F)(F)c1ccc(CNC(=O)[C@H]2CN(C(=O)Nc3nc[nH]n3)CCN2S(=O)(=O)c2ccc(OC(F)(F)F)cc2)cc1` [Example 565, (R)-4-(4-trifluoromethoxy-benzenesulfonyl)-piperazine-1,3-dicarboxylic acid 3-[4-(1,1-difluoro-propyl)-benzylamide] 1-[(1H-[1,2,4]triazol-3-yl)-amide]], the IC50 is less than 0.1 µM in test [1] and 0.1 to 1 µM in test [2].

With `CCC(F)(F)c1ccc(CNC(=O)[C@H]2CN(C(=O)Nc3nn[nH]n3)CCN2S(=O)(=O)c2ccc(OC(F)(F)F)cc2)cc1` [Example 566, (R)-4-(4-trifluoromethoxy-benzenesulfonyl)-piperazine-1,3-dicarboxylic acid 3-[4-(1,1-difluoro-propyl)-benzylamide] 1-[(2H-tetrazol-5-yl)-amide]], the IC50 is less than 0.1 µM in test [1] and 0.1 to 1 µM in test [2].

For the compound `CCC(F)(F)c1ccc(CNC(=O)[C@H]2CN(C(=O)Nc3csc(C)n3)CCN2S(=O)(=O)c2ccc(OC(F)(F)F)cc2)cc1` [Example 567, (R)-4-(4-trifluoromethoxy-benzenesulfonyl)-piperazine-1,3-dicarboxylic acid 3-[4-(1,1-difluoro-propyl)-benzylamide] 1-[(2-methyl-thiazol-4-yl)-amide]], the IC50 is less than 0.1 µM in test [1] and 0.1 to 1 µM in test [2].

With `CCC(F)(F)c1ccc(CNC(=O)[C@H]2CN(C(=O)n3nc(C)nc3N)CCN2S(=O)(=O)c2ccc(OC(F)(F)F)cc2)cc1` [Example 568, (R)-4-(5-amino-3-methyl-[1,2,4]triazole-1-carbonyl)-1-(4-trifluoromethoxy-benzenesulfonyl)-piperazine-2-carboxylic acid 4-(1,1-difluoro-propyl)-benzylamide], the IC50 in test [1] and in test [2] was more than 1 µM in each case.

With `CCC(F)(F)c1ccc(CNC(=O)[C@H]2CN(C(=O)Nc3ccn(C)n3)CCN2S(=O)(=O)c2ccc(OC(F)(F)F)cc2)cc1` [Example 569, (R)-4-(4-trifluoromethoxy-benzenesulfonyl)-piperazine-1,3-dicarboxylic acid 3-[4-(1,1-difluoro-propyl)-benzylamide] 1-[(1-methyl-1H-pyrazol-3-yl)-amide]], the results for the IC50 in test [1] and in test [2] were less than 0.1 µM and 0.1 to 1 µM, respectively.

Turning to `CC(C)(C)c1ccc(CNC(=O)[C@H]2CN(c3ncc(CO)s3)CCN2S(=O)(=O)c2ccc(OC(F)(F)F)cc2)cc1` [Example 570, (R)-4-(5-hydroxymethyl-thiazol-2-yl)-1-(4-trifluoromethoxy-benzenesulfonyl)-piperazine-2-carboxylic acid 4-tert-butyl-benzylamide], the IC50 in test [1] and in test [2] was less than 0.1 µM throughout.

Turning to `CCCc1ccc(CNC(=O)[C@H]2CN(c3cc(Cl)ncn3)CCN2S(=O)(=O)c2ccc(OC(F)(F)F)cc2)cc1` [Example 571, (R)-4-(6-chloro-pyrimidin-4-yl)-1-(4-trifluoromethoxy-benzenesulfonyl)-piperazine-2-carboxylic acid 4-propyl-benzylamide], the IC50 in test [1] and in test [2] was less than 0.1 µM each time.

`CCCc1ccc(CNC(=O)[C@H]2CN(c3ccncn3)CCN2S(=O)(=O)c2ccc(OC(F)(F)F)cc2)cc1` [Example 572, (R)-4-pyrimidin-4-yl-1-(4-trifluoromethoxy-benzenesulfonyl)-piperazine-2-carboxylic acid 4-propyl-benzylamide]: the 50% inhibitory concentration (IC50) in test [1] and in test [2] was less than 0.1 µM throughout.
